Test results: ChEMBL document CHEMBL4308826, “Small Molecule Allosteric Modulators of G-Protein-Coupled Receptors: Drug-Target Interactions” (J Med Chem, 2018)

Tests used:
[1] = biological target: T1, Proteinase-activated receptor 2 (Homo sapiens, UniProt P55085); experiment: Antagonist activity at human PAR2
T1 sequence (P55085 whole entry): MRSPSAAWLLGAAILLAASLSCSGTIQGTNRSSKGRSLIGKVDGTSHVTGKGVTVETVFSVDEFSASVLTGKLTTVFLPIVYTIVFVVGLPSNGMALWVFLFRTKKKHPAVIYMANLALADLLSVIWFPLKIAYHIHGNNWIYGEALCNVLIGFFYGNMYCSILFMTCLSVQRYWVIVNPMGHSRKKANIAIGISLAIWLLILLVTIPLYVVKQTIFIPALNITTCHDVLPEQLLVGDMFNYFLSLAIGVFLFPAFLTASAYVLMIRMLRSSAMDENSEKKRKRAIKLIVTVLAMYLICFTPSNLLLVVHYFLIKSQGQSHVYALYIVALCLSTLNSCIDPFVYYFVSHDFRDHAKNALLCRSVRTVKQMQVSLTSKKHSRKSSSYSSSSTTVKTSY

[2] = biological target: T2, Proteinase-activated receptor 1 (Homo sapiens, UniProt P25116); experiment: Antagonist activity at human PAR1
T2 sequence (P25116 whole entry): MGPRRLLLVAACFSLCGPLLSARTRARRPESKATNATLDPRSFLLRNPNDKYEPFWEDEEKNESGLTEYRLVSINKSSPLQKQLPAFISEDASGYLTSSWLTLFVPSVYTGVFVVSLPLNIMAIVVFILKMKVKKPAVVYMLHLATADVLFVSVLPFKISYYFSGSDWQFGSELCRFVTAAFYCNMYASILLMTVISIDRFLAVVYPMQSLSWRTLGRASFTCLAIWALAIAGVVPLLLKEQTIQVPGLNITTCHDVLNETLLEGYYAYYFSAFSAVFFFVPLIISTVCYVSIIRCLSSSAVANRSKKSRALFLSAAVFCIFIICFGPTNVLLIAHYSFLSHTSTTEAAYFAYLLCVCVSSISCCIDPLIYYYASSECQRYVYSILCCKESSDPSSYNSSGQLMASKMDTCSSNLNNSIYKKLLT

[3] = biological target: T3, Proteinase-activated receptor 4 (Homo sapiens, UniProt Q96RI0); experiment: Antagonist activity at human PAR4
T3 sequence (Q96RI0 whole entry): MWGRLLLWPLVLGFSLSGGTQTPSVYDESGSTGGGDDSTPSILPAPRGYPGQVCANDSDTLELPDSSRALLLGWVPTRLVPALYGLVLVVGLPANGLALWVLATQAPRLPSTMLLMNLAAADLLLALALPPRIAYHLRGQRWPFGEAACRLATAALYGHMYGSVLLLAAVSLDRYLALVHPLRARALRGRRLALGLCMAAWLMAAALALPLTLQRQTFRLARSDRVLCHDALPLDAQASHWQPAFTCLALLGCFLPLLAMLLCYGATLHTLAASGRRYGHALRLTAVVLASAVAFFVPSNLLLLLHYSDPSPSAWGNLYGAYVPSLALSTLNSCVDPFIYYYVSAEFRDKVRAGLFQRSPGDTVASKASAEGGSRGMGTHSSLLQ

With `C[C@@H](C1CCCCC1)n1c(-c2cc3c(cc2Br)OCO3)nc2cc(C(=O)Nc3ccc(C#N)cc3)ccc21` as the compound, how does the IC50 [1] read?
Its IC50 is under 2.5 nM.

What about the IC50 [2] of the same compound?
Its IC50 is over 50 µM.

And the IC50 [3]?
The IC50 was 380 nM.
